Data: patent publication EP0373658A2, “Use of quinoline derivatives in treating cancer” (priority 1988, dated 1990)

Key:
operable breast cancer = test: Clinical trial II: antiproliferative effect in operable breast cancer; format: in vivo, women; conditions: oral, 20 days, 50 to 200 ug/day/p.o.; compound A 25 µg/day days 0 to 3, 50 µg/day days 4 to 6, 75 µg/day until day 20
Source text: 24 to 36 women with operable breast cancer, aged less than 70 years, in whom a positive biopsy cut has been obtained at the first clinic visit are selected. The patients are not be taking any chronic medication which is known to influence serum prolactin levels. The trial is effected on a randomized double blind basis. All patients are to have baseline evaluations before beginning treatment.
The women are given an oral dose of a COMPOUND OF THE INVEN-TION or placebo for 20 days, starting on day 0. They are operated on day 10 with either breast conservation or modified radical mastectomy. Prolactin levels in plasma are measured on days 0, 6, 10, 13 and 20. Histological evaluations are performed on days 1 and 10.

serum prolactin = test: lowering basal serum prolactin levels in the male rat (prolactin secretion inhibition); format: in vivo
Source text: Many of the above mentioned compounds are published as prolactin secretion inhibitors, some of which are extremely potent and have long lasting activity. The potency of the compounds as prolactin secretion inhibitors can be determined in standard tests, e.g. by lowering basal serum prolactin levels in the male rat.

[1] = 52 week toxicology studies in rats; format: in vivo; conditions: oral doses, 0.20 mg/kg/day
[2] = test system: 5-HT sensitive adenylate cyclase of the liver fluke; test: activation of 5-HT sensitive adenylate cyclase of the liver fluke (method of R. Markstein); format: biochemical; conditions: adenylate cyclase stimulated by serotonin
Source text: A group of compounds comprises compounds which are D₂ agonists without any antagonistic activity. Another group of compounds includes those compounds which are serotonin agonists, e.g. as indicated in standard in vitro binding tests and by activation of 5-HT sensitive adenylate cyclase of the liver fluke according to the method of R.Markstein, Neurochemical Effects of Some Ergot Derivatives: A Basis for their Antiparkinson Actions. J. Neural transm 51:39, (1981).
Examples of such compounds include compound C and pergolide. Compound C, pergolide and 5-HT agonists have efficacies of 90, 80, and 100 respectively and pD₂ [10g EC₅₀] of 6.9, 6.9 and 7.7 respectively in this test on adenylate cyclase stimulated by serotonin.

| SMILES | mitotic rate (operable breast cancer) | ID₅₀ mg/kg after 4 hours (serum prolactin) [mg/kg] | toxic effects [1] | efficacies [2] | pD₂ [10g EC₅₀] [2] |
| --- | --- | --- | --- | --- | --- |
| CCCN1CC(NS(=O)(=O)N(CC)CC)CC2Cc3c(O)cccc3CC21 (stereo not drawn) [Compound A, N,N-diethyl-N′-[(3α,4aα,10aβ)-1,2,3,4,4a,5,10,10a-octahydro-6-hydroxy-1-propyl-3-benzo[g]-quinolinyl] sulfamide] | satisfactory results indicative of a reduced mitotic rate | 0.03 | no toxic effects are observed | – | – |
| CN1C[C@@H](NS(=O)(=O)N(C)C)C[C@@H]2c3cccc4c3c(cn4C)C[C@H]21 [B, 1,6-dimethyl-8α-(N,N-dimethylsulphamoylamino)-ergoline-I] | – | 0.003 | – | – | – |
| CCCN1C[C@H](CSC)C[C@@H]2c3cccc4[nH]cc(c34)C[C@H]21 [pergolide, 6-n-propyl-8α-methylmercaptomethyl-ergoline-I, reference compound] | – | – | – | 80 | 6.9 |
| CCCN1C[C@@H](NS(=O)(=O)N(CC)CC)C[C@@H]2c3cccc4[nH]cc(c34)C[C@H]21 [Compound C, 6-n-propyl-8α-(N,N-diethylsulphamoylamino)-ergoline-I] | – | 0.001 | – | 90 | 6.9 |
